In patent publication US20260242330A1, “USE OF AN AMANTADINE MONONITRATE COMPOUND IN MANUFACTURE OF A MEDICAMENT FOR THE PREVENTION AND TREATMENT OF HYPERTENSION” (GUANGZHOU MAGPIE PHARMACEUTICALS CO., LTD., priority 2022, published 2026):

Tests used:
[1] = system: blood pressure of subjects; assay: Effect of single administration of MN-08 on blood pressure of subjects (clinical trial); type: in vivo, human
Text: All subjects in the following embodiments have signed informed consent forms, which comply with medical ethics regulations. According to the relevant provisions of Chinese Guidelines for the Prevention and Treatment of Hypertension (2018 Revision), the values measured for hypertension are the average blood pressure measured three times on a different day without the use of antihypertensive drugs. Therefore, in this embodiment, the baseline blood pressure of the subjects before administration is set as the average blood pressure measured at three different times: screening period, occupancy period, and 1 hour before administration, as shown in Tables 1 to 3.
In the clinical trial of amantadine mononitrate compound MN-08, it is investigated the effect of MN-08 on blood pressure in subjects. The experiments were carried out to analyze the blood pressure status of subjects in both the single dose and multiple dose groups.
During a single administration, each dose group is required to fast for at least 10 hours before administration, without water deprivation overnight, and on the day of administration, the medication is taken on an empty stomach at around 8 a.m., with 240 mL of water administered.

[2] = system: blood pressure in subjects with a DP≥90 mmHg; assay: Effect of MN-08 on blood pressure in subjects with a DP≥90 mmHg; type: in vivo, human; conditions: single or multiple administration as in Example 2
Text: From this, it can be seen that making diastolic pressure drop more than systolic pressure drop is the characteristic of MN-08.

CCC12CC3CC(N)(C1)CC(CO[N+](=O)[O-])(C3)C2 (stereo not shown) [MN-08]
SP (reduce amplitude) ([1]; Subject 7, 78 mg single dose, 6 hrs after adm. (D 1), vs baseline 106 mmHg): −11.3%
DP ([1]; Subject 7, 78 mg single dose, 12 hrs after adm. (D 1), baseline 74 mmHg): 60 mmHg
SP ([1]; Subject 7, 78 mg single dose, 12 hrs after adm. (D 1), baseline 106 mmHg): 102 mmHg
DP (reduce amplitude) ([1]; Subject 7, 78 mg single dose, 12 hrs after adm. (D 1), vs baseline 74 mmHg): −18.9%
SP (reduce amplitude) ([1]; Subject 7, 78 mg single dose, 12 hrs after adm. (D 1), vs baseline 106 mmHg): −3.8%
DP ([1]; Subject 8, 96 mg single dose, 6 hrs after adm. (D 1), baseline 69 mmHg): 51 mmHg
SP ([1]; Subject 8, 96 mg single dose, 6 hrs after adm. (D 1), baseline 101 mmHg): 79 mmHg
DP (reduce amplitude) ([1]; Subject 8, 96 mg single dose, 6 hrs after adm. (D 1), vs baseline 69 mmHg): −26.1%
SP (reduce amplitude) ([1]; Subject 8, 96 mg single dose, 6 hrs after adm. (D 1), vs baseline 101 mmHg): −21.8%
DP ([1]; Subject 8, 96 mg single dose, 12 hrs after adm. (D 1), baseline 69 mmHg): 61 mmHg
SP ([1]; Subject 8, 96 mg single dose, 12 hrs after adm. (D 1), baseline 101 mmHg): 87 mmHg
DP (reduce amplitude) ([1]; Subject 8, 96 mg single dose, 12 hrs after adm. (D 1), vs baseline 69 mmHg): −11.6%
SP (reduce amplitude) ([1]; Subject 8, 96 mg single dose, 12 hrs after adm. (D 1), vs baseline 101 mmHg): −13.8%
DP ([1]; Subject 9, 96 mg single dose, 6 hrs after adm. (D 1), baseline 78 mmHg): 63 mmHg
SP ([1]; Subject 9, 96 mg single dose, 6 hrs after adm. (D 1), baseline 121 mmHg): 105 mmHg
DP (reduce amplitude) ([1]; Subject 9, 96 mg single dose, 6 hrs after adm. (D 1), vs baseline 78 mmHg): −19.2%
SP (reduce amplitude) ([1]; Subject 9, 96 mg single dose, 6 hrs after adm. (D 1), vs baseline 121 mmHg): −13.2%
DP ([1]; Subject 9, 96 mg single dose, 12 hrs after adm. (D 1), baseline 78 mmHg): 68 mmHg
SP ([1]; Subject 9, 96 mg single dose, 12 hrs after adm. (D 1), baseline 121 mmHg): 103 mmHg
DP (reduce amplitude) ([1]; Subject 9, 96 mg single dose, 12 hrs after adm. (D 1), vs baseline 78 mmHg): −12.8%
SP (reduce amplitude) ([1]; Subject 9, 96 mg single dose, 12 hrs after adm. (D 1), vs baseline 121 mmHg): −14.8%
DP ([1]; Subject 10, 114 mg single dose, 6 hrs after adm. (D 1), baseline 75 mmHg): 62 mmHg
SP ([1]; Subject 10, 114 mg single dose, 6 hrs after adm. (D 1), baseline 115 mmHg): 92 mmHg
DP (reduce amplitude) ([1]; Subject 10, 114 mg single dose, 6 hrs after adm. (D 1), vs baseline 75 mmHg): −17.3%
SP (reduce amplitude) ([1]; Subject 10, 114 mg single dose, 6 hrs after adm. (D 1), vs baseline 115 mmHg): −20.0%
DP ([1]; Subject 10, 114 mg single dose, 12 hrs after adm. (D 1), baseline 75 mmHg): 57 mmHg
SP ([1]; Subject 10, 114 mg single dose, 12 hrs after adm. (D 1), baseline 115 mmHg): 90 mmHg
DP (reduce amplitude) ([1]; Subject 10, 114 mg single dose, 12 hrs after adm. (D 1), vs baseline 75 mmHg): −24.0%
SP (reduce amplitude) ([1]; Subject 10, 114 mg single dose, 12 hrs after adm. (D 1), vs baseline 115 mmHg): −21.7%
DP ([1]; Subject 11, 114 mg single dose, 6 hrs after adm. (D 1), baseline 85 mmHg): 68 mmHg
SP ([1]; Subject 11, 114 mg single dose, 6 hrs after adm. (D 1), baseline 126 mmHg): 119 mmHg
DP (reduce amplitude) ([1]; Subject 11, 114 mg single dose, 6 hrs after adm. (D 1), vs baseline 85 mmHg): −20.0%
SP (reduce amplitude) ([1]; Subject 11, 114 mg single dose, 6 hrs after adm. (D 1), vs baseline 126 mmHg): −5.6%
DP ([1]; Subject 11, 114 mg single dose, 12 hrs after adm. (D 1), baseline 85 mmHg): 68 mmHg
SP ([1]; Subject 11, 114 mg single dose, 12 hrs after adm. (D 1), baseline 126 mmHg): 105 mmHg
DP (reduce amplitude) ([1]; Subject 11, 114 mg single dose, 12 hrs after adm. (D 1), vs baseline 85 mmHg): −20.0%
SP (reduce amplitude) ([1]; Subject 11, 114 mg single dose, 12 hrs after adm. (D 1), vs baseline 126 mmHg): −16.7%
DP ([1]; Subject 12, 132 mg single dose, 6 hrs after adm. (D 1), baseline 78 mmHg): 59 mmHg
SP ([1]; Subject 12, 132 mg single dose, 6 hrs after adm. (D 1), baseline 123 mmHg): 120 mmHg
DP (reduce amplitude) ([1]; Subject 12, 132 mg single dose, 6 hrs after adm. (D 1), vs baseline 78 mmHg): −24.4%
SP (reduce amplitude) ([1]; Subject 12, 132 mg single dose, 6 hrs after adm. (D 1), vs baseline 123 mmHg): −2.4%
DP ([1]; Subject 12, 132 mg single dose, 12 hrs after adm. (D 1), baseline 78 mmHg): 60 mmHg
SP ([1]; Subject 12, 132 mg single dose, 12 hrs after adm. (D 1), baseline 123 mmHg): 105 mmHg
DP (reduce amplitude) ([1]; Subject 12, 132 mg single dose, 12 hrs after adm. (D 1), vs baseline 78 mmHg): −23.1%
SP (reduce amplitude) ([1]; Subject 12, 132 mg single dose, 12 hrs after adm. (D 1), vs baseline 123 mmHg): −14.6%
DP ([1]; Subject 13, 132 mg single dose, 6 hrs after adm. (D 1), baseline 68 mmHg): 54 mmHg
SP ([1]; Subject 13, 132 mg single dose, 6 hrs after adm. (D 1), baseline 106 mmHg): 97 mmHg
DP (reduce amplitude) ([1]; Subject 13, 132 mg single dose, 6 hrs after adm. (D 1), vs baseline 68 mmHg): −20.6%
SP (reduce amplitude) ([1]; Subject 13, 132 mg single dose, 6 hrs after adm. (D 1), vs baseline 106 mmHg): −8.5%
DP ([1]; Subject 13, 132 mg single dose, 12 hrs after adm. (D 1), baseline 68 mmHg): 56 mmHg
SP ([1]; Subject 13, 132 mg single dose, 12 hrs after adm. (D 1), baseline 106 mmHg): 96 mmHg
DP (reduce amplitude) ([1]; Subject 13, 132 mg single dose, 12 hrs after adm. (D 1), vs baseline 68 mmHg): −17.6%
SP (reduce amplitude) ([1]; Subject 13, 132 mg single dose, 12 hrs after adm. (D 1), vs baseline 106 mmHg): −9.4%
effect of a single dose on blood pressure ([1]; all dose groups (6, 12, 42, 60, 78, 96, 114, 132 mg), especially diastolic pressure): can reduce the blood pressure
effect on diastolic pressure [2]: significant effect on reducing diastolic pressure
